Measured values reported in article PMC6499206, “Quantification of Volatile Metabolites Derived From Garlic (Allium sativum) in Human Urine” (Frontiers in Nutrition, 2019).

Test: Quantification of garlic-derived metabolites in human urine after ingestion of 3 g raw garlic (SIDA, SAFE, HRGC-MS / HRGC-GC-MS)
Format: in vivo
Conditions: human urine; also refs 5, 16
Excerpt: Human urine samples were obtained from 18 volunteers (age 22–38 years, mean 27 years; 11 females, 7 males); thereby, one volunteer conducted the whole experimental series twice. At the time of examination, volunteers reported no known illness that might have potentially influenced the metabolism or the excretion of urine. The test persons were instructed to avoid foods that were rich in sulfur-containing substances at the testing day as well as 2 days preceding the testing day, namely garlic, onion, wild garlic, chives, cabbage, and leek, and were only allowed to consume the garlic sample provided in the course of the experiments. Additionally, subjects were asked to keep records of the food (including food supplements) and beverages they consumed during these 3 testing days. Generally, the overall panelists' requirements were in accordance with our previous studies ([5], [16]).
On the sampling day, the outer garlic cloves of a whole garlic bulb were peeled and cut into ~3 mm cubes by using a garlic cutter (Genius GmbH, Limburg/Lahn, Germany). Subsequently these cubes were thoroughly mixed and aliquoted into 3 g portions. Three to four test persons conducted the experiment at the same day. Each test person was asked to ingest a garlic portion of 3 g. In total, eight consecutive urine samples were provided by each test person, comprising one whole urine set. The samples were collected in sterile brown glass bottles, with sampling times as follows: one sample was provided directly prior to garlic consumption. The series of the second to eighth sample was then obtained at about 0.5, 1, 2, 4, 6, 8, and 24 h after garlic consumption, respectively. Between the first urine sample (prior to garlic consumption) and the seventh urine sample (8 h after garlic consumption) test persons only spent urine at the specific time points mentioned before. Another sample was provided at the next morning (24 h after garlic consumption). Between the samples provided 8 and 24 h after garlic consumption no urine was collected. All samples were immediately placed into a −80°C freezer and were kept frozen until further analysis.
The samples of each set were termed according to their sampling time. The following list provides the time intervals that are related to the respective sample name: • - pre: before garlic consumption • - 0.5 h post: 0.4–0.8 h after garlic consumption • - 1 h post: 0.9–1.3 h after garlic consumption • - 2 h post: 1.8 h−2.2 h after garlic consumption • - 4 h post: 3.8–4.4 h after garlic consumption • - 6 h post: 5.8–6.4 h after garlic consumption • - 8 h post: 7.8–8.4 h after garlic consumption • - 24 h post: 23.8–25.6 h after garlic consumption
A creatinine kit (Labor+Technik Eberhard Lehmann GmbH, Berlin, Germany) was used to determine the creatinine content in each urine sample. The determination principle of this kit is based on the reaction of creatinine with picric acid under basic conditions (Jaffé reaction). The formed complex was detected photometrically at a wavelength of 492 nm.
For quantification purposes, the deuterated standards ^2H3-AMS, ^2H3-AMSO, and ^2H3-AMSO2 were added to the sample and stirred for 10 min. Subsequently, DCM was added in a ratio of 1:2 (DCM/human urine; v/v) and this solution was stirred for further 30 min at room temperature. To isolate the volatile fraction from the urine samples we then applied SAFE-distillation ([17]), thereby distilling the respective samples at 50°C. After completion of the distillation process, 10 mL of DCM were applied in each case to rinse the SAFE apparatus and to ensure complete transition of the volatile compounds. This process was repeated with another 10 mL of DCM. After thawing, the obtained aqueous distillate phase was extracted three times with 25 mL DCM. The organic phases were combined, dried over anhydrous Na2SO4 and concentrated to a total volume of 100 μL by means of Vigreux distillation and subsequent micro-distillation at 50°C. […]

presence as metabolite in human urine after garlic consumption: exclude the presence
SMILES: C=CCS(=O)(=O)CC=C [diallyl sulfone]
